This assay deals with P388 leukemia ip, CD2F1 mice, survival T/C. The experiment in a line: NCI In Vivo Anticancer Drug Screen. Data for tumor model P388 Leukemia (intraperitoneal) in CD2F1 (CDF1) mice. The following applies: endpoint: median survival time, higher = longer survival. The method in brief:
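Mice carrying the transplanted tumor received test compound or vehicle. Survival was recorded in each group, and the value is the treated-group measurement divided by that of the vehicle-treated control group.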

Setting [1] is: dose: 50.0 mg/kg/injection, schedule: Q01DX005 (ip), vehicle: Klucel (hydroxypropylcellulose) (HPC).
Where [2] appears, read: dose: 50.0 mg/kg/injection, schedule: Q01DX005 (ip), vehicle: saline with Tween-80.
[3] abbreviates: dose: 100.0 mg/kg/injection, schedule: Q01DX005 (ip), vehicle: saline with Tween-80.
[4] abbreviates: dose: 200.0 mg/kg/injection, schedule: Q01DX005 (ip), vehicle: saline with Tween-80.

“And” between values parts separate entries of the source, which are not always exact repeats. Equal values may be shown once. Toxic doses and inconclusive results are not listed.

Regarding `CC(C)=C1N(C(C)C)C(=C(C)C)N(C(C)C)C(=C(C)C)N1C(C)C`, the T/C reads like this: under setting [1], 96 % of control; (dose: 100.0 mg/kg/injection, schedule: Q01DX005 (ip), vehicle: Klucel (hydroxypropylcellulose) (HPC)) 100 % of control; (dose: 200.0 mg/kg/injection, schedule: Q01DX005 (ip), vehicle: Klucel (hydroxypropylcellulose) (HPC)) 89 % of control.
As to `FC(F)(F)c1ccc2c(c1)N(CCCN1CCN(CCCl)CC1)c1ccccc1S2`, the T/C runs as follows: (dose: 6.25 mg/kg/injection, schedule: Q04DX003 (ip), vehicle: saline) 96 % of control; (dose: 12.5 mg/kg/injection, schedule: Q04DX003 (ip), vehicle: saline) 101 % of control; (dose: 25.0 mg/kg/injection, schedule: Q04DX003 (ip), vehicle: saline) 115 % of control.
Turning to `CC(C)N(C(=O)C1CCN(Cc2c[nH]c3ccccc23)CC1)C(C)C`, the T/C is 108 % of control (dose: 12.5 mg/kg/injection, schedule: Q01DX009 (ip), vehicle: saline with Tween-80); 101 % of control (dose: 25.0 mg/kg/injection, schedule: Q01DX009 (ip), vehicle: saline with Tween-80); 101 % of control (dose: 50.0 mg/kg/injection, schedule: Q01DX009 (ip), vehicle: saline with Tween-80); 115 % of control (dose: 100.0 mg/kg/injection, schedule: Q01DX009 (ip), vehicle: saline with Tween-80).
On to `O=C1c2cccnc2C(=O)N1CCO`, for which the T/C reads like this: (dose: 50.0 mg/kg/injection, schedule: Q01DX005 (ip), vehicle: saline) 95 % of control; (dose: 100.0 mg/kg/injection, schedule: Q01DX005 (ip), vehicle: saline) 100 % of control; (dose: 200.0 mg/kg/injection, schedule: Q01DX005 (ip), vehicle: saline) 101 % of control.
`COc1cccc2c1C(=O)c1c(O)c3c(c(O)c1C2=O)C[C@@](O)(C(=O)COC(C)=O)C[C@@H]3OC1CC(N)C(O)C(C)O1` (stereo not given in full): the T/C runs as follows: (dose: 0.08 mg/kg/injection, schedule: Q01DX009 (ip), vehicle: saline sonified) 200 % of control; (dose: 1.5 mg/kg/injection, schedule: Q01DX009 (ip), vehicle: saline sonified) 150 % of control.
For `[Cl][Sn]([Cl])([c]1ccccc1)[c]1ccccc1.c1ccc(-c2nnc(-c3ccccn3)nc2-c2ccccc2)cc1`, the T/C by setting is: (dose: 0.79 mg/kg/injection, schedule: Q01DX005 (ip), vehicle: Klucel (hydroxypropylcellulose) (HPC)) 101 % of control and 120 % of control; (dose: 1.56 mg/kg/injection, schedule: Q01DX005 (ip), vehicle: Klucel (hydroxypropylcellulose) (HPC)) 120 % of control; (dose: 3.12 mg/kg/injection, schedule: Q01DX005 (ip), vehicle: Klucel (hydroxypropylcellulose) (HPC)) 123 % of control.
With `N#CC(c1ccccc1)C1NC(C(=O)O)CS1` (stereo not given), the T/C is 106 % of control (dose: 50.0 mg/kg/injection, schedule: Q01DX009 (ip), vehicle: suspension in saline); 93 % of control (dose: 100.0 mg/kg/injection, schedule: Q01DX009 (ip), vehicle: suspension in saline); 93 % of control (dose: 200.0 mg/kg/injection, schedule: Q01DX009 (ip), vehicle: suspension in saline).
For the compound `CCOC(=O)c1nc(C)[nH]c1C`, the T/C reads like this: (dose: 50.0 mg/kg/injection, schedule: Q01DX009 (ip), vehicle: Klucel (hydroxypropylcellulose) (HPC)) 100 % of control; (dose: 100.0 mg/kg/injection, schedule: Q01DX009 (ip), vehicle: Klucel (hydroxypropylcellulose) (HPC)) 95 % of control; (dose: 200.0 mg/kg/injection, schedule: Q01DX009 (ip), vehicle: Klucel (hydroxypropylcellulose) (HPC)) 100 % of control.
As to `CCCCC/C(C=O)=C\c1ccccc1`, the T/C reads like this: (dose: 100.0 mg/kg/injection, schedule: Q04DX003 (ip), vehicle: saline with Tween-80) 118 % of control; (dose: 200.0 mg/kg/injection, schedule: Q04DX003 (ip), vehicle: saline with Tween-80) 100 % of control; (dose: 400.0 mg/kg/injection, schedule: Q04DX003 (ip), vehicle: saline with Tween-80) 109 % of control.
Take `COc1ccc(B2OCCO2)cc1`: the T/C is, setting by setting: under setting [2], 100 % of control; under setting [3], 97 % of control; under setting [4], 101 % of control.
Regarding `CC(C)=CCC(OC(=O)C=C(C)C)C1=CC(=O)c2c(O)ccc(O)c2C1=O` (stereo not given), the T/C runs as follows: (dose: 1.56 mg/kg/injection, schedule: Q01DX009 (ip), vehicle: water) 108 % of control; (dose: 3.12 mg/kg/injection, schedule: Q01DX009 (ip), vehicle: water) 107 % of control; (dose: 6.25 mg/kg/injection, schedule: Q01DX009 (ip), vehicle: water) 117 % of control; (dose: 10.0 mg/kg/injection, schedule: Q01DX009 (ip), vehicle: saline with Tween-80) 110 % of control; (dose: 10.0 mg/kg/injection, schedule: Q04DX003 (ip), vehicle: saline with Tween-80) 109 % of control; (dose: 12.5 mg/kg/injection, schedule: Q01DX009 (ip), vehicle: water) 119 % of control. Also, the T/C reads like this: (dose: 20.0 mg/kg/injection, schedule: Q01DX009 (ip), vehicle: saline with Tween-80) 110 % of control; (dose: 20.0 mg/kg/injection, schedule: Q04DX003 (ip), vehicle: saline with Tween-80) 90 % of control; (dose: 40.0 mg/kg/injection, schedule: Q04DX003 (ip), vehicle: saline with Tween-80) 104 % of control.
For `CCCCCOP(=O)(N=[N+]=[N-])OCCCCC`, the T/C (dose: 0.78 mg/kg/injection, schedule: Q01DX009 (ip), vehicle: saline with Tween-80) is 98 % of control and the T/C (dose: 1.56 mg/kg/injection, schedule: Q01DX009 (ip), vehicle: saline with Tween-80) is 98 % of control.
For `O=[n+]1c2c(n([O-])c3cc(Cl)c(Cl)cc31)CCC2`, the T/C runs as follows: (dose: 60.0 mg/kg/injection, schedule: Q01DX005 (ip), vehicle: saline with Tween-80) 95 % of control; (dose: 120.0 mg/kg/injection, schedule: Q01DX005 (ip), vehicle: saline with Tween-80) 95 % of control.
Take `O=C1CC(c2ccccc2)=NO1`: the T/C is 94 % of control (dose: 100.0 mg/kg/injection, schedule: Q04DX003 (ip), vehicle: Klucel (hydroxypropylcellulose) (HPC)); 99 % of control (dose: 200.0 mg/kg/injection, schedule: Q04DX003 (ip), vehicle: Klucel (hydroxypropylcellulose) (HPC)); 100 % of control (dose: 400.0 mg/kg/injection, schedule: Q04DX003 (ip), vehicle: Klucel (hydroxypropylcellulose) (HPC)).
With `CCN(CC)CCN(C(=O)C1c2ccccc2Oc2ccccc21)C1CCCCC1`, the T/C reads like this: (dose: 12.5 mg/kg/injection, schedule: Q01DX005 (ip), vehicle: Klucel (hydroxypropylcellulose) (HPC)) 101 % of control; (dose: 25.0 mg/kg/injection, schedule: Q01DX005 (ip), vehicle: Klucel (hydroxypropylcellulose) (HPC)) 100 % of control; under setting [1], 98 % of control and 92 % of control.
Take `CCCCOC(=O)c1ccccc1C(=O)O.CCCCOC(=O)c1ccccc1C(=O)O.[Cu+2]`: the T/C is 102 % of control (dose: 6.25 mg/kg/injection, schedule: Q04DX003 (ip), vehicle: saline with Tween-80); 96 % of control (dose: 12.5 mg/kg/injection, schedule: Q04DX003 (ip), vehicle: saline with Tween-80); 102 % of control (dose: 25.0 mg/kg/injection, schedule: Q04DX003 (ip), vehicle: saline with Tween-80).
In the case of `Cc1cc2cc(C)c3c(Cl)nnc(Cl)c3c2o1`, the T/C is 106 % of control under setting [2], 103 % of control under setting [3] and 100 % of control under setting [4].
With `CCC1(O)CC(OC2CC(O)C(O)CO2)c2c(O)c3c(c(O)c2C1C(=O)OC)C(=O)c1cccc(O)c1C3=O` (stereo not given), the T/C (dose: 1.56 mg/kg/injection, schedule: Q01DX009 (ip), vehicle: other) was 90 % of control; the T/C (dose: 3.13 mg/kg/injection, schedule: Q01DX009 (ip), vehicle: other) was 88 % of control; the T/C (dose: 6.25 mg/kg/injection, schedule: Q01DX009 (ip), vehicle: other) is 101 % of control; the T/C (dose: 12.5 mg/kg/injection, schedule: Q01DX009 (ip), vehicle: other) was 115 % of control; the T/C (dose: 25.0 mg/kg/injection, schedule: Q01DX009 (ip), vehicle: other) is 92 % of control.
For `COc1cc(C)c(C(=O)Oc2cc(C)c(C(=O)O)c(O)c2)c(O)c1`, the T/C reads like this: (dose: 50.0 mg/kg/injection, schedule: Q01DX009 (ip), vehicle: saline) 90 % of control; (dose: 100.0 mg/kg/injection, schedule: Q01DX009 (ip), vehicle: saline) 95 % of control.
Consider `CCOC(=O)CCCCCNC(=S)N1c2c(nc(N)[nH]c2=O)NCC1CNc1ccc(C(=O)NC(CCC(=O)O)C(=O)O)cc1` (stereo not given), for which the T/C runs as follows: (dose: 100.0 mg/kg/injection, schedule: Q01DX001 (ip), vehicle: sodium bicarbonate) 89 % of control; (dose: 200.0 mg/kg/injection, schedule: Q01DX001 (ip), vehicle: sodium bicarbonate) 90 % of control; (dose: 400.0 mg/kg/injection, schedule: Q01DX001 (ip), vehicle: sodium bicarbonate) 92 % of control.

The values above are taken from PubChem BioAssay AID330 (DTP/NCI, 2004).
